In patent publication US7511145B2 (Genelabs Technologies, Inc., priority 2003, dated 2009):

Molecular target: T1, HCV-NS5b (Hepatitis C virus genotype 1b, UniProt Q9WMX2)
T1 construct: (His)6 (C); made in house; host or cells: XL-1 cells (E. coli), IPTG-inducible plasmid, nickel-NTA purification
Assay: HCV-NS5b enzyme assay (incorporation of radiolabeled UTP)
Format: biochemical
Details: for inhibition at 33 µM: enzyme inhibition at compound concentration of 33 uM; for inhibition at 100 µM: read-out: % inh@100, enzyme inhibition at compound concentration of 100 uM
Summary of the method: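 Percent inhibition, background-corrected against uninhibited control, was measured at 100 and 33 uM compound. Incorporation of [3H]-UTP (10 μM each NTP) into biotinylated HCV-template RNA, 37° C for 2 h, pH 7.5, scintillation proximity. Enzyme: C-terminally truncated (21 aa), His6-tagged NS5b from XL-1.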

SMILES	inhibition at 33 µM [%]	inhibition at 100 µM [%]
COc1ccc(-c2ccc(C(=O)O)cc2)c(-c2ccc3cc(-c4nc5cc(C(=O)O)ccc5n4C4CCCCC4)ccc3n2)c1 [Compound 421, 2-[2-(4′-carboxy-4-methoxy-biphen-2-yl)-quinolin-6-yl]-1-cyclohexyl-1H-benzoimidazole-5-carboxylic acid]	100	100
COc1ccc(-c2cccc(Cl)c2)c(-c2ccc3cc(-c4nc5cc(C(=O)O)ccc5n4C4CCCCC4)ccc3n2)c1 [Compound 422, 2-[2-(3′-chloro-4-methoxy-biphen-2-yl)-quinolin-6-yl]-1-cyclohexyl-1H-benzoimidazole-5-carboxylic acid]	98.8	99.2
O=C(O)c1ccc2c(c1)nc(-c1ccc3nc(-c4ccnc5ccccc45)ccc3c1)n2C1CCCCC1 [Compound 423, 2-[2,4′]biquinolinyl-6-yl-1-cyclohexyl-1H-benzoimidazole-5-carboxylic acid]	102	102
O=C(O)c1ccc2c(c1)nc(-c1ccc3nc(-c4ccccc4Br)c(-c4ccccc4)cc3c1)n2C1CCCCC1 [Compound 424, 2-[2-(2-Bromo-phenyl)-3-phenyl-quinolin-6-yl]-1-cyclohexyl-1H-benzoimidazole-5-carboxylic acid]	98.7	99.1
COc1cccc(-c2nc3ccc(-c4nc5cc(C(=O)O)ccc5n4C4CCCCC4)cc3nc2-c2cccc(OC)c2)c1 [Compound 425, 2-[2,3-Bis-(3-methoxyphenyl)quinoxalin-6-yl]-1-cyclohexyl-1H-benzimidazole-5-carboxylic acid]	96.2	98.2
Cc1nc(C)c(-c2ccc3cc(-c4nc5cc(C(=O)O)ccc5n4C4CCCCC4)ccc3n2)s1 [Compound 426, 1-cyclohexyl-2-[2-(2,4-dimethyl-thiazol-5-yl)-quinolin-6-yl]-1H-benzoimidazole-5-carboxylic acid]	96.6	102
O=C(O)c1ccc2c(c1)nc(-c1ccc3nc(-c4ccccn4)ccc3c1)n2C1CCCCC1 [Compound 427, 1-cyclohexyl-2-(2-pyridin-2-yl-quinolin-6-yl)-1H-benzoimidazole-5-carboxylic acid]	93.8	98.4
O=C(O)c1ccc2c(c1)nc(-c1ccc3nc(-c4ccc(Oc5ccccc5)cc4)ccc3c1)n2C1CCCCC1 [Compound 428, 1-cyclohexyl-2-[2-(4-phenoxy-phenyl)-quinolin-6-yl]-1H-benzoimidazole-5-carboxylic acid]	98.8	99.6
O=C(O)c1ccc2c(c1)nc(-c1ccc3nc(-c4ccc(N5CCOCC5)cc4)ccc3c1)n2C1CCCCC1 [Compound 429, 1-cyclohexyl-2-[2-(4-morpholin-4-yl-phenyl)-quinolin-6-yl]-1H-benzoimidazole-5-carboxylic acid]	96.2	101
O=C(O)c1ccc2c(c1)nc(-c1ccc3nc(-c4cc(OCCCN5CCCC5)ccc4-c4ccccc4)ccc3c1)n2C1CCCCC1 [Compound 430, 1-Cyclohexyl-2-{2-[4-(3-pyrrolidin-1-yl-propoxy)-biphen-2-yl]-quinolin-6-yl}-1H-benzoimidazole-5-carboxylic acid]	98	96.7
O=C(O)c1ccc2c(c1)nc(-c1ccc3nc(-c4cn(-c5cccnc5Cl)c(=O)[nH]c4=O)ccc3c1)n2C1CCCCC1 [Compound 431, 2-{2-[1-(2-chloro-pyridin-3-yl)-2,4-dioxo-1,2,3,4-tetrahydro-pyrimidin-5-yl]-quinolin-6-yl}-1-cyclohexyl-1H-benzoimidazole-5-carboxylic acid]	95.3	96.4
O=C(O)c1ccc2c(c1)nc(-c1ccc3nc(-c4cc[nH]c4)ccc3c1)n2C1CCCCC1 [Compound 432, 1-cyclohexyl-2-[2-(1H-pyrrol-3-yl)-quinolin-6-yl]-1H-benzoimidazole-5-carboxylic acid]	88.9	96.4
O=C(O)c1ccc2c(c1)nc(-c1ccc3nc(-c4ccccc4)cc(Nc4ccccc4)c3c1)n2C1CCCCC1 [Compound 433, 1-cyclohexyl-2-(2-phenyl-4-phenylamino-quinolin-6-yl)-1H-benzoimidazole-5-carboxylic acid]	92.5	100
COc1cccc(O)c1-c1ccc2cc(-c3nc4cc(C(=O)O)ccc4n3C3CCCCC3)ccc2n1 [Compound 434, 1-cyclohexyl-2-[2-(2-hydroxy-6-methoxy-phenyl)-quinolin-6-yl]-1H-benzoimidazole-5-carboxylic acid]	105	102
O=C(O)c1ccc2c(c1)nc(-c1ccc3nc(-c4cc(C(=O)N5CCCC5)ccc4-c4ccc([N+](=O)[O-])cc4)ccc3c1)n2C1CCCCC1 [Compound 435, 1-cyclohexyl-2-{2-[4′-nitro-4-(pyrrolidine-1-carbonyl)biphen-2-yl]quinolin-6-yl}-1H-benzimidazole-5-carboxylic acid]	102	101
COc1ccc(-c2ccc(C(F)(F)F)cc2)c(-c2ccc3cc(-c4nc5cc(C(=O)O)ccc5n4C4CCCCC4)ccc3n2)c1 [Compound 436, 1-cyclohexyl-2-[2-(4-methoxy-4′-trifluoromethyl-biphen-2-yl)-quinolin-6-yl]-1H-benzoimidazole-5-carboxylic acid]	98.8	99.3
COc1ccc(-c2cccc(C(=O)O)c2)c(-c2ccc3cc(-c4nc5cc(C(=O)O)ccc5n4C4CCCCC4)ccc3n2)c1 [Compound 437, 2-[2-(3′-carboxy-4-methoxy-biphen-2-yl)-quinolin-6-yl]-1-cyclohexyl-1H-benzoimidazole-5-carboxylic acid]	100	101
COc1ccc(-c2ccc(C)cc2)c(-c2ccc3cc(-c4nc5cc(C(=O)O)ccc5n4C4CCCCC4)ccc3n2)c1 [Compound 438, 1-cyclohexyl-2-[2-(4-methoxy-4′-methyl-biphen-2-yl)-quinolin-6-yl]-1H-benzoimidazole-5-carboxylic acid]	98.7	99.6
O=C(O)c1ccc2c(c1)nc(-c1ccc3nc(-c4cc([N+](=O)[O-])ccc4-c4ccc(Cl)cc4)ccc3c1)n2C1CCCCC1 [Compound 439, 2-[2-(4′-chloro-4-nitro-biphen-2-yl)-quinolin-6-yl]-1-cyclohexyl-1H-benzoimidazole-5-carboxylic acid]	99.2	97
O=C(O)c1ccc2c(c1)nc(-c1ccc3nc(-c4ccccc4-c4ccc(Cl)cc4)c(-c4ccccc4)cc3c1)n2C1CCCCC1 [Compound 440, 2-[2-(4′-Chloro-biphen-2-yl)-3-phenyl-quinolin-6-yl]-1-cyclohexyl-1H-benzoimidazole-5-carboxylic acid]	99.2	97.8
COc1ccc(-c2nc3ccc(-c4nc5cc(C(=O)O)ccc5n4C4CCCCC4)cc3nc2-c2ccc(OC)cc2)cc1 [Compound 441, 2-[2,3-Bis-(4-methoxyphenyl)quinoxalin-6-yl]-1-cyclohexyl-1H-benzimidazole-5-carboxylic acid]	97.3	98.8
O=C(O)c1ccc2c(c1)nc(-c1ccc3nc(-c4cnccn4)ccc3c1)n2C1CCCCC1 [Compound 442, 1-cyclohexyl-2-(2-pyrazin-2-yl-quinolin-6-yl)-1H-benzoimidazole-5-carboxylic acid]	92.5	98.2
O=C(O)c1ccc2c(c1)nc(-c1ccc3nc(-c4ccncc4)ccc3c1)n2C1CCCCC1 [Compound 443, 1-cyclohexyl-2-(2-pyridin-4-yl-quinolin-6-yl)-1H-benzoimidazole-5-carboxylic acid]	87	98.7
Cc1ccc2cc(-c3ccc4cc(-c5nc6cc(C(=O)O)ccc6n5C5CCCCC5)ccc4n3)ccc2c1 [Compound 444, 1-cyclohexyl-2-[2-(6-methyl-naphthalen-2-yl)-quinolin-6-yl]-1H-benzoimidazole-5-carboxylic acid]	99.5	101
COCCOc1cccc(-c2ccc3cc(-c4nc5cc(C(=O)O)ccc5n4C4CCCCC4)ccc3n2)c1 [Compound 445, 1-Cyclohexyl-2-{2-[3-(2-methoxy-ethoxy)-phenyl]-quinolin-6-yl}-1H-benzoimidazole-5-carboxylic acid]	96.9	99.6
O=C(O)c1ccc2c(c1)nc(-c1ccc3nc(-c4ccccc4[N+](=O)[O-])ccc3c1)n2C1CCCCC1 [Compound 446]	96.6	101
O=C(O)c1ccc2c(c1)nc(-c1ccc3nc(-c4cc(OCCCN5CCCC5)ccc4-c4ccc(Cl)cc4)ccc3c1)n2C1CCCCC1 [Compound 447, 2-{2-[4′-Chloro-4-(3-pyrrolidin-1-yl-propoxy)-biphen-2-yl]-quinolin-6-yl}-1-cyclohexyl-1H-benzoimidazole-5-carboxylic acid]	97.8	94.9
Cc1oc2ccc(OCc3ccccc3)cc2c1-c1ccc2cc(-c3nc4cc(C(=O)O)ccc4n3C3CCCCC3)ccc2n1 [Compound 448, 2-[2-(5-benzyloxy-2-methyl-benzofuran-3-yl)-quinolin-6-yl]-1-cyclohexyl-1H-benzoimidazole-5-carboxylic acid]	94.6	96
O=C(O)c1ccc2c(c1)nc(-c1ccc3nc(-c4cnn(-c5ccccc5)c4)ccc3c1)n2C1CCCCC1 [Compound 449, 1-cyclohexyl-2-[2-(1-phenyl-1H-pyrazol-4-yl)-quinolin-6-yl]-1H-benzoimidazole-5-carboxylic acid]	99.8	101
